The record followed here is paper PMC7577125 (Antimicrobial Agents and Chemotherapy, 2020).

Data set [1] relates to HBV. As to the kind of experiment: HBV infection of HepG2-NTCP cells. The conditions noted are these: Hepatitis B virus. In kind it is cell-based.
The next data set relates to HBV capsid DNA. Put plainly: Incoming capsid assay in PHH cells. Format: cell-based. The conditions noted are these: Hepatitis B virus, 3 h, read-out: Capsid DNA % of Control.
Data set [2] concerns HBV genotypes A, B, C, and D. As to the kind of experiment: microbe, parasite or virus in culture. Format: cell-based. The conditions noted are these: Hepatitis B virus, read-out: VR EC50s.
Data set [3] has as its system HBV. Put plainly: Dose response of ETV and ABI-H0731 alone and in combination in induced HepAD38 cells. In kind it is cell-based, Hepatitis B virus. Here is the method: Viral replication was evaluated by quantifying the levels of total HBV DNA in the cells by qPCR. […] In both cases, the data are plotted as a function of each drug’s concentration relative to its VR EC50.

For data set [4], the target named is pregnane X receptor (PXR) (Homo sapiens, UniProt O75469). As to the kind of experiment: PXR activation / CYP3A4 induction in DPX2 cells. In kind it is in vitro ADME. The conditions noted are these: 24 h.
pregnane X receptor (PXR), sequence (O75469 whole entry): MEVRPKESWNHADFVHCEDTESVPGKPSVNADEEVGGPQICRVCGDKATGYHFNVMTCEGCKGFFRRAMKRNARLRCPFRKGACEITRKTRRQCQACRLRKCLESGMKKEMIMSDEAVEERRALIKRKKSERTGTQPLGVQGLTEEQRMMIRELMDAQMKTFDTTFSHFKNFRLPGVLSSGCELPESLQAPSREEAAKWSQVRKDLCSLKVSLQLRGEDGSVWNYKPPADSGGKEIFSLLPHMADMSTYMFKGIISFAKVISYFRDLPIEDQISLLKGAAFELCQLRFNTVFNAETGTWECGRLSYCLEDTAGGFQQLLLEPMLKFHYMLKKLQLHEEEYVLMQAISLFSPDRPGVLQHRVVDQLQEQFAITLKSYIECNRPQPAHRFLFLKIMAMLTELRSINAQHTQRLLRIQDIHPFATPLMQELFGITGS
Method: The determination of CYP induction potential was conducted using CPX2 cells that harbor the human PXR gene and a luciferase reporter gene linked to two promoters identified in the human 3A4 gene.
Data set [5] is described as follows: in vitro. Particulars: human.
Data set [6] can be described thus: in vitro. The conditions noted are these: rat, plasma.
In another data set the target is CYP2C8 (Homo sapiens, UniProt P10632). Put plainly: biochemical.
CYP2C8, sequence (P10632 whole entry): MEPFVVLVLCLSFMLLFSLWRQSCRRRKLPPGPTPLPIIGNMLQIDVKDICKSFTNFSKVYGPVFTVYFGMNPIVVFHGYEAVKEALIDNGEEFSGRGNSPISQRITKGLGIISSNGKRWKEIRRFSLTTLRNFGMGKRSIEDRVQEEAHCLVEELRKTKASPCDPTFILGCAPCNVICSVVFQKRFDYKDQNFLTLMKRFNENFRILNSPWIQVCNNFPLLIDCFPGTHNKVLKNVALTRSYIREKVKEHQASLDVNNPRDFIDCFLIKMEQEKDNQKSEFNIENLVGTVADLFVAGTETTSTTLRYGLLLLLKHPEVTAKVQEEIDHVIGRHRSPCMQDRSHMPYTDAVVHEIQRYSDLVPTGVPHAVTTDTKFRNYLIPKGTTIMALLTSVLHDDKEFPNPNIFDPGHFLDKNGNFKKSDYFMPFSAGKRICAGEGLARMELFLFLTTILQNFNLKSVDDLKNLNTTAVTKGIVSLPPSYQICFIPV

The structures appear in SMILES notation. Where two headings read alike, the source gives them in different places. A value given as a limit tells only on which side of the number the result lay.

One may read the inhibition as how much of the control response was suppressed. As usually defined, the fraction unbound is free concentration divided by total concentration. A word on the IC50: it is the concentration that gives 50% inhibition. A lower IC50 goes with higher potency. On to `O=C(NCc1cnc(C(F)(F)F)s1)c1ccc2c(c1)NC(=O)c1ccccc1S2(=O)=O` [ABI-H0731], for which the EC50 in the data set on HBV [1] (read-out: Mean EC50, HBeAg) was 4.95 µM; in the data set with HBV [1] (read-out: Mean EC50, HBsAg), 7.3 µM; in the data set with HBV [1] (read-out: Mean EC50, pgRNA), 2.68 µM; in the data set with HBV [1] (total intracellular viral DNA, read-out: Mean EC50, viral DNA), 0.307 ± 0.041 µM; in data set [2], 0.086 to 0.142 µM. Besides, the activity at […] with HBV capsid DNA (0.37 μM) was 71%. The activity at 1.11 µM in the data set on HBV capsid DNA (1.11 μM) was 60%. Also, the activity at 3.33 µM in the data set with HBV capsid DNA (3.33 μM) amounted to 32%. The activity at 10 µM with HBV capsid DNA (10.0 μM) came out at 9%. Further, in the data set on HBV [3] (60× VR EC50 (10 μM ABI-H0731), control 2.2 × 10^6), the “HBV DNA levels” value is reported as 2.1 × 10^3 copies/μl. The “inhibition of HBV DNA replication” value in the data set on HBV [3] (60× VR EC50 (10 μM)) was ~3 logs. For the same molecule, in the data set with HBV [3] (Hepatitis B virus, HePAD38, 96 h, read-out: inhibition of HBV replication), the inhibition at 1.7 µM was determined as 98%. Moreover, the entries for the “PXR activation activity, % of the control activity” value in data set [4] (10 μM) and in data set [4] (40 μM) were 29% and 68%, respectively. For the same molecule, the CC50 at 4 days in the data set “in vitro [5]” is > 10 µM. The molecule also gave a fraction unbound at 6 h in the data set “in vitro [6]” of 0.02 to 0.052. On CYP2C8, this molecule gave an IC50 of 27.2 µM.
